# From patent US6534495B1, “Serine protease inhibitors” (Akzo Nebel, priority 1997, dated 2003)
# Target: T1, Human thrombin (Homo sapiens, UniProt P00734)
# T1 construct: purchased Centraal Laboratorium voor Bloedtransfusie, Amsterdam, The Netherlands
# Assay: Anti-thrombin assay (hydrolysis of chromogenic substrate S-2238)
# Format: biochemical
# Details: S-2238, TNP buffer, 37° C., read-out: IC50, antithrombin activity
# Method: Thrombin (Factor […]) is a factor in the coagulation cascade.
# The anti-thrombin activity of compounds of the present invention was assessed by measuring spectrophotometrically the rate of hydrolysis of the chromogenic substrate s-2238 exterted by thrombin. This assay for anti-thrombin activity in a buffer system was used to assess the IC50-value of a test compound.
# Test medium: Tromethamine-NaCl-polyethylene glycol 6000 (TNP) buffer
# Reference compound: 12581 (Kabi)
# Solubilisation can be assisted with dimethylsulfoxide, methanol, ethanol, acetonitrile or tert.-butyl alcohol which are without adverse effects in concentrations up to 2.5% in the final reaction mixture.
# 1. Tromethamine-NaCl (TN) buffer
# Composition of the buffer:
# The pH of the solution is adjusted to 7.4 at 37° C. with HCl (10 mmol.l^−1).
# Polyethylene glycol 6000 is dissolved in TN buffer to give a concentration of 3 g.l^−1.
# One vial S-2238 (25 mg; Kabi Diagnostica, Sweden) is dissolved in 20 ml TN buffer to give a concentration of 1.25 mg.ml^−1 (2 mmol.l^−1).
# Human thrombin (16 000 nKat.vial^−1; Centraal Laboratorium voor Bloedtransfusie, Amsterdam, The Netherlands) is dissolved in TNP buffer to give a stock solution of 835 nKat.ml^−1.
# Immediately before use this solution is diluted with TNP buffer to give a concentration of 3.34 nKat.ml^−1.
# All ingredients used are of analytical grade
# For aqueous solutions ultrapure water (Milli-Q quality) is used.
# Preparation of Test and Reference Compound Solutions
# The test and reference compounds are dissolved in Milli-Q water to give stock concentrations of 10^−2 mol.l^−1. Each concentration is stepwise diluted with the vehicle to give concentrations of […], 10^−4 and 10^−5 mol.l^−1. The dilutions, including the stock solution, are used in the assay (final concentrations in the reaction mixture: 3·10^−3; 10^−3; 3·10^−4; 10^−4; 3·10^−5; 10^−5, 3·10^−6 and 10^−6 mol.l^−1, respectively).
# At room temperature 0.075 ml and 0.025 ml test compound or reference compound solutions or vehicle are alternately pipetted into the wells of a microtiter plate and these solutions are diluted with 0.115 ml and 0.0165 ml TNP buffer, respectively. […] Starting after 1 min of incubation, the absorbance of each sample at 405 nm is measured every 2 min. for a period of 90 min. using a kinetic microtiter plate reader (Twinreader plus, Flow Laboratories).
# All data are collected in an IBM personal computer using LOTUS-MEASURE. For each compound concentration (expressed in mol.l^−1 reaction mixture) and for the blank the absorbance is plotted versus the reaction time in min.
# Evaluation of responses: For each final concentration the maximum absorbance was calculated from the assay plot. […]
row,IC50,Compound
1,110 nM,"CCS(=O)(=O)NC(Cc1ccc(OC)cc1)C(=O)N1CCCC1C(=O)NC(CCCCN)C(=O)C(=O)N1CCC1 [Example 38, EtSO2-D-Tyr(Me)-Pro -LysΨ[COCO]-Azetidine]"
2,10 nM,"CC(C)OC(=O)C(=O)C(CCCCN)NC(=O)C1CCCN1C(=O)C(CC1CCCCC1)NS(=O)(=O)CC12CCC(CC1=O)C2(C)C [Example 24, (10-Camphor)SO2-D-Cha-Pro-LysΨ[COCO]—O-iPropyl]"
3,90 nM,"NCCCCC(NC(=O)CN1CCCCC(NS(=O)(=O)Cc2ccccc2)C1=O)C(=O)C(N)=O (stereo not drawn) [Example 4, BzlSO2-norLeu(cyclo)-Gly-LysΨ[COCO]—NH2]"
4,20 nM,"CC(C)OC(=O)C(=O)C(CCCCN)NC(=O)C1CCCN1C(=O)C(NS(=O)(=O)Cc1ccccc1)C(c1ccccc1)c1ccccc1 [Example 40, BzlSO2-D-Dpa-Pro-LysΨ[COCO]—O-iPropyl]"

# Target: T2, Bovine Factor Xa Human (Bos taurus, UniProt P00743)
# T2 construct: purchased Kabi Diagnostica
# Assay: Anti-factor Xa assay (hydrolysis of chromogenic substrate S-2222)
# Format: biochemical
# Details: S-2222, TNP buffer, 37° C.
# Method: Activated Factor X (Xa) is a factor in the coagulation cascade. The anti-Xa activity of compounds of the present invention was assessed by measuring spectrophotometrically the rate of hydrolysis of the chromogenic substrate s-2222 exterted by Xa. This assay for anti-Xa activity in a buffer system was used to assess the IC50-value of the test compound.
# In general the followed procedure and test conditions were analogous to those of the anti-thrombin assay as described above. Differences are indicated below.
# Reference compound: benzamidine
# Solubilisation can be assisted with dimethylsulfoxide, methanol, ethanol, acetonitrile or tert.-butyl alcohol which are without adverse effects in concentrations up to 1% (for DMSO) and 2.5% (for the other solvents) in the final reaction mixture.
# One vial S-2222 (15 mg; Kabi Diagnostica, Sweden) is dissolved in 10 ml water to give a concentration of 1.5 mg.ml^−1 (2 mmol.l^−1).
# Bovine Factor Xa Human (71 nKat.vial^−1, Kabi Diagnostica) is dissolved in 10 ml TNP buffer and then further diluted with 30 ml TNP buffer to give a concentration of 1.77 nKat.ml^−1. The dilution has to be freshly prepared.
# Instead of the S-2238 solution (in anti-thrombin assay), the above S-2222 solution is added to each well in this assay.
# T2 sequence (P00743 234-492 limits assumed): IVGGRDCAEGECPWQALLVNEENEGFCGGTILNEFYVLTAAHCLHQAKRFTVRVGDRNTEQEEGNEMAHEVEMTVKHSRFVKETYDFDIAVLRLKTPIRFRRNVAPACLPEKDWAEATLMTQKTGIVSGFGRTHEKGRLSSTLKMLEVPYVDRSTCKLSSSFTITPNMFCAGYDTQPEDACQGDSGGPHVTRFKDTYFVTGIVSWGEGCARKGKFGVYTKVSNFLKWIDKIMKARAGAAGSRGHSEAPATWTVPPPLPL
# T2 sequence (P00743 41-180 limits assumed): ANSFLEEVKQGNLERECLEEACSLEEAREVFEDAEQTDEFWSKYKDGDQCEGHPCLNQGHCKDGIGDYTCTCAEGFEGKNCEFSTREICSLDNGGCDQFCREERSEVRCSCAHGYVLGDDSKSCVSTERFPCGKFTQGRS
row,IC50,Compound
1,20 nM,"CC(C)OC(=O)C(=O)C(CCCCN)NC(=O)C1CCCN1C(=O)C(CC1CCCCC1)NS(=O)(=O)Cc1ccccc1 [Example 28, BenzylSO2-D-Cha-Pro-LysΨ[COCO]—O-iPropyl]"
2,280 nM,"CCOC(=O)C(=O)C(CCCCN)NC(=O)C1CCCN1C(=O)C(CC1CCCCC1)NS(=O)(=O)CC [Example 5, EthylSO2-D-Cha-Pro-LysTr[COCO]-OEt]"
3,640 nM,"NCCCCC(NC(=O)CN1CCCCC(NS(=O)(=O)Cc2ccccc2)C1=O)C(=O)C(=O)NCc1ccccc1 (stereo not drawn) [Example 1, BzlSO2-norLeu(cyclo)-Gly-LysΨ[COCO]-NHBzl]"

# Target: T3, recombinant human factor VIIa / recombinant human Tissue Factor complex (Homo sapiens, UniProt P08709)
# T3 construct: purchased American Diagnostica Inc, Greenwich, Conn
# Assay: Anti factor VIIa/tissue factor assay (amidolysis of Pefachrome VIIa)
# Format: biochemical
# Details: reference compound; 50% inhibition of the amidolytic reaction at 90 min
# Description: III. Anti Factor VIIa/Tissue Factor Assay
# Vascular damage initiates a series of enzyme generation reactions ultimately leading to the formation of a fibrin gel at the site of the injury. The primary enzyme generation reaction is the generation of activated factor VII (VIIa) from proenzyme factor VII. This activation reaction takes place by an as yet unknown mechanism. […] The activated Factor VII then also binds to membrane-bound TF and this […] tenase complex next converts Factor X into Factor Xa.
# Thrombosis develops when there is insufficient control of the coagulation reaction. One way to restore this control is by inhibiting essential coagulation enzymes such as for instance the complex of membrane-bound TF and Factor VIIa. […] A method is described by which the inhibitory potency of compounds towards VIIa/TF complex can be established. Test compounds are mixed at various concentrations with factor VIIa and TF and with a chromogenic substrate, which is known to be split far better by TF-bound VIIa than by free VIIa. The amidolytic reaction taking place is continuously monitored in a microtiter plate reader. Inhibitory potency of the compounds investigated is expressed by the IC50, defined as the concentration of compounds yielding 50% inhibition of the amidolytic reaction, ninety minutes after the start of the reaction.
# A ten times concentrated Hepes buffer made by dissolving 29.40 g CaCl2.2H2O, 47.66 g Hepes, 87.66 g NaCl and 30.00 g polyethyleneglycol (PEG) MW=6000 in 1000 ml aqua bidest. After the solution has been heated to 37° C., the pH of the buffer is set on 7.40 with help of 10 molar NaOH. The concentrated buffer solution is stored at 4° C. and is stable for at least two months at this condition. Prior to use the buffer is diluted in aqua bidest. 1 to 8 to obtain a final concentration in the wells (See test procedure) of 20 mM CaCl2, 20 mM Hepes, 150 mM NaCl and 0.3% PEG6000. If compounds are dissolved and diluted in aqua bidest. or another vehicle because of an insufficient solubility the Hepes buffer can be diluted 1 to 6 to preserve the same ionic strength in the test.
# Recombinant Human Factor VIIa
# Recombinant human factor VIIa is obtained from American Diagnostica Inc, Greenwich, Conn. Each vial contains 1.2 mg recombinant human factor VIIa, which is lyophilized from 2 ml buffer composed of 10 mM glycylglycine, 50 mM NaCl, 10 mM CaCl2, 30 mg/ml mannitol, 0.1% Tween, pH 5.5. The contents of each of these vials is reconstituted with 2 ml aqua bidest. as indicated by the manufacturer. The 2 ml 1.2*10^−5 stock solution thus obtained is divided in smaller fractions, which are stored at −30° C. At this condition these VIIa samples are stable for at least 6 months.
# Recombinant Human Tissue Factor
# Recombinant human Tissue Factor is obtained from American Diagnostica Inc, Greenwich, Conn. Each vial contains 25 μg recombinant human Tissue Factor (non-lipidated, MW 35000 Dalton), which is lyophilized from 1 ml Tris/HCl buffer (pH 8.0) composed of 150 mM NaCl, 200 mM mannitol and 10 mM CHAPS (Steroid derivative used to solubilize membrane proteins; see Merck Index). The contents of each vial is reconstituted with 1 ml aqua bidest. as indicated by the manufacturer. The 1 ml 7.14×10^−7 M stock solution thus obtained is divided in smaller fractions, which are stored at −30° C. Thus stored these VIIa samples are stable for at least 67 months. […]
# T3 sequence (P08709 213-466 limits assumed): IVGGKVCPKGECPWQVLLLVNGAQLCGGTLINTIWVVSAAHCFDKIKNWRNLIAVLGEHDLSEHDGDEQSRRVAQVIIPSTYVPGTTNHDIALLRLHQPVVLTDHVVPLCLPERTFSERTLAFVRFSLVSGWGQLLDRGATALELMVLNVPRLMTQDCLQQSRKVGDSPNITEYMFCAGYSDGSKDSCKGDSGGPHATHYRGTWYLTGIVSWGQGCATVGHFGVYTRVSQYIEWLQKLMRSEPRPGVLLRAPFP
# T3 sequence (P08709 61-212 limits assumed): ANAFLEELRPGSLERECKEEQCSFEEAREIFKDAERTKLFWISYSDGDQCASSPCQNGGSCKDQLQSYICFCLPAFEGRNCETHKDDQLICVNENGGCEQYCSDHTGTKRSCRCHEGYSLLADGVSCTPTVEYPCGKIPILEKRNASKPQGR
# T3 sequence (P13726 33-295 partner): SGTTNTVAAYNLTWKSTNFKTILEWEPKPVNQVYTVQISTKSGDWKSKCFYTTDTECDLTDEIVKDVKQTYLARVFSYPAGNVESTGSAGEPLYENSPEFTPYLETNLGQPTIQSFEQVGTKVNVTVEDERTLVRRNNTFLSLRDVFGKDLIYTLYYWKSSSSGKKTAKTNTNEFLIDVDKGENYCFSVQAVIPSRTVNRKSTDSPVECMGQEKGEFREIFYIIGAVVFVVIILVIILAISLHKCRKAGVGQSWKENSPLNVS
row,IC50,Compound
1,300 nM,"NC(N)=NCCC[C@H](NC(=O)[C@@H]1CCCN1C(=O)[C@H](N)Cc1ccccc1)C(=O)CCl [Org 34593, reference compound]"

# Same assay, conditions: single point, at a concentration of 1×10^−5 M
row,"percentage inhibition, anti factor VIIa/tissue factor activity",Compound
1,94%,CCS(=O)(=O)N[C@H](CC(C)C)C(=O)N[C@@H](CCC(N)=O)C(=O)N[C@@H](CCCCN)C(=O)C(=O)OC(C)C [EtSO2-D-Leu-Gln-LysΨ[COCO]-O-iPropyl]
2,56%,CCS(=O)(=O)N[C@@H](CC(N)=O)C(=O)N[C@@H](CC(C)C)C(=O)N[C@@H](CCCCN)C(=O)C(=O)OC(C)C [EtSO2-Asn-Leu-LysΨ[COCO]-O-iPropyl]
3,91%,CCS(=O)(=O)N1Cc2ccccc2C[C@@H]1C(=O)N[C@@H](Cc1ccccc1)C(=O)N[C@@H](CCCCN)C(=O)C(=O)OC(C)C [EtSO2-D-3-Tiq-Phe-LysΨ[COCO]-O-iPropyl]
4,98%,CCS(=O)(=O)N[C@H](Cc1ccccc1)C(=O)N[C@@H](CC(C)C)C(=O)N[C@@H](CCCCN)C(=O)C(=O)OC(C)C [EtSO2-D-Phe-Leu-LysΨ[COCO]-O-iPropyl]
